From publication PMC2323292, “Immunodominant Tuberculosis CD8 Antigens Preferentially Restricted by HLA-B” (PLoS Pathogens, 2007)
Where two headings read alike, the source gives them in different places.

Experiments:
CD8+ T cells [1] = assay: Ex vivo IFN-γ ELISPOT, CD8+ T cells with peptide-pulsed autologous DCs; assay type: cell-based, human; details: donor 443 (LTBI), linear regression
CD8+ T cells [2] = details: donor 160; ex vivo, autologous DCs pulsed with epitope; clones published previously ref 17; cited from earlier work
Excerpt: Table 3 Summary of CD8+ T Cell Epitopes Identified | column: Epitope-Specific T Cells^a

| Sequence | Epitope-Specific T Cells (CD8+ T cells [1]) | Epitope-Specific T Cells (CD8+ T cells [2]) |
| --- | --- | --- |
| ELPQWLSANR | <10 IFN-γ spot forming units per 2 | – |
| RADEEQQQAL | – | 120 IFN-γ spot forming units per 2 |
